Experimental data published in patent US8765786B2, “1-substituted indazole derivative” (Dainippon Sumitomo Pharma Co., Ltd., priority 2012, dated 2014).

Target: T1, human α7 nAChR (Homo sapiens, UniProt P36544)
T1 construct: expressed in transfected cells; host or cells: GH4C1 cells derived from rat pituitary (ATCC CCL-82.2)
Experiment: Evaluation of PAM activity with human α7 nACh receptor stably expressing cells (aequorin luminescence, FDSS7000)
Assay type: cell-based
Settings: test compound 10 μmol/L, ACh added at EC20, ratio of RLU (Max-Min) of test wells to control wells; for activity at 10 µM: read-out: α7PAM (%) @ 10 μmol/L
Description: Human α7 nAChR stably expressing cells were generated and cultured. In detail, GH4C1 cells derived from rat pituitary (cat#CCL-82.2, ATCC, USA) were used as a host cell. PcDNA3.1Zeo vector containing a nucleotide sequence encoding a protein GenBank BAC81731 and pcDNA3.1 vector containing human α7 nAChR gene (cat#V790-20, invitrogen, Carlsbad, Calif., USA) were transfected to the cells to give aequorins and human α7 nAChR stably expressing cells respectively. The aequorins and human α7 nAChR stably expressing cells were screened with Zeocin (cat#R25001, invitrogen, Carlsbad, Calif., USA) and Geneticin (cat #10131-027, invitrogen, Carlsbad, Calif., USA) respectively.
The cells were cultured in F-10 Nutrient Mixture (Ham) medium (cat #11550-043, invitrogen, Carlsbad, Calif., USA) containing 2.5% fetal bovine serum (cat #2917354, ICN Biomedicals, Inc, USA), 15% inactivated horse serum (cat #26050-088, invitrogen, Carlsbad, Calif., USA), 1 μg/mL Geneticin, and 5 μg/mL Puromycin (cat #14861-84, invitrogen, Carlsbad, Calif., USA), in a Collagen Type 1-coated dish (cat #4030-010, iwaki, Tokyo, Japan). During the culture, the medium was replaced with fresh medium in every 2 to 3 days, and the cells were treated with TrypLE Express (cat #45604-021, invitrogen, Carlsbad, Calif., USA) to collect them in every 7 days. Thus, the cells were subcultured.
7 Days after subculturing, the cells were treated with TrypLE Express to collect them when they were about 80% confluent. The cells were suspended in a reaction medium containing Hanks (cat #14065-056, invitrogen, Carlsbad, Calif., USA)/20 mmol/L Hepes (cat #15630-080, invitrogen, Carlsbad, Calif., USA), Buffer (pH 7.4), F-10 Nutrient Mixture (Ham), and 0.1 mg/mL Geneticin, and the suspension was seeded in a 384-well plate (cat #781090, Greiner, Germany) at 20000 cells/25 μL per well.
On the next day after seeding, Viviren (cat#E649X, Promega, Madison, Wis., USA) was added to the medium so that the final concentration could be 4 μmol/L (15 μL/well). The plates were centrifuged and then placed in the dark for 4 hours at room temperature.
Each of the test compounds was dissolved in DMSO to prepare each test sample at a concentration of 1000-fold the final concentration. To the solution was added Hanks/20 mM HEPES/0.2% BSA (cat#A3803, Sigma, St. Louis, Mo., USA), and the concentration was adjusted to 6-fold the final concentration.
FDSS7000 (Hamamatsu Photonics) was used to detect the luminescence signal evoked by α7 nAChR stimulation. The cells and a luminescent substrate were put on a plate, and the test sample was added thereto. […] After the addition of ACh, the luminescence signal (the central wavelength: 465 nm) was measured for 138 seconds to calculate RLU (Max-Min). The ratio of the RLU (Max-Min) of the test-compound-containing wells to that of the control wells was defined as PAM activity.

T1 sequence (P36544 23-502): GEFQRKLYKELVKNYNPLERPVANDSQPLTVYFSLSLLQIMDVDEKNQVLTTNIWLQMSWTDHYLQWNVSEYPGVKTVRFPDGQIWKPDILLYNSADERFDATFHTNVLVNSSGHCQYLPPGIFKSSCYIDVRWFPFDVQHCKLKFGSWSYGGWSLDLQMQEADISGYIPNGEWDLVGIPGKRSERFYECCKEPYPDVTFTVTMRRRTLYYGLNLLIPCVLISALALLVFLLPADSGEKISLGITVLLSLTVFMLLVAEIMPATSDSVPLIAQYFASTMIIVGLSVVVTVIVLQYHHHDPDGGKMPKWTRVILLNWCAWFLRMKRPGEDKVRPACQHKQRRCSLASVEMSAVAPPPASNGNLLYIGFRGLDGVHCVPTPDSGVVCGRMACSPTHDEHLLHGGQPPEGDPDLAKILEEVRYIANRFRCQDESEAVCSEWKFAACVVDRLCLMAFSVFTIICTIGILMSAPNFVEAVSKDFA

Compound	α7PAM (%) @ 10 μmol/L [%]	activity at 10 µM [%]
CCc1ccc2c(cnn2[C@H]2CC[C@@H](C(=O)NC3CCCC3)CC2)c1 [Example 128]	429	
CCc1ccc2c(cnn2[C@H]2CC[C@@H](C(=O)NC3CCOCC3)CC2)c1 [Example 129]	325	
CCc1ccc2c(cnn2[C@H]2CC[C@@H](C(=O)NC3CCC(OC)CC3)CC2)c1 (stereo partly drawn) [Example 130]	252	
CCOc1ccc2c(cnn2C2CCN(C(=O)c3ccc(C(F)(F)F)cn3)CC2)c1 [Example 132]	361	
Cc1ccc2c(cnn2C2CCN(C(=O)C3CCC(F)(F)CC3)CC2)c1 [Example 133]	568	
O=C(C1CCC(F)(F)CC1)N1CCC(n2ncc3cc(F)ccc32)CC1 [Example 134]	237	
O=C(C1CCC(F)(F)CC1)N1CCC(n2ncc3ccccc32)CC1 [Example 137]	328	
Cc1ccc2c(cnn2C2CCN(C(=O)C3CCC(F)(F)CC3)CC2)c1 [Example 138]	642	
CCc1cccc2c1cnn2C1CCN(C(=O)C2CCC(F)(F)CC2)CC1 [Example 139]	1018	
O=C(C1CCOCC1)N1CCC(n2ncc3cc(C4CC4)ccc32)CC1 [Example 140]	265	
COC1CCC(C(=O)N2CCC(n3ncc4cc(C5CC5)ccc43)CC2)CC1 (stereo not drawn) [Example 141]	448	
[2H]C([2H])([2H])c1ccc2c(cnn2C2CCN(C(=O)N[C@H]3CC[C@H](OC)CC3)CC2)c1 [Example 144, N-(trans-4-methoxycyclohexyl)-4-[5-(^2H3)methyl-1H-indazol-1-yl]piperidine-1-carboxamide]		637
CCOc1c(C)ccc2c1cnn2C1CCN(C(=O)N[C@H]2CC[C@H](OC)CC2)CC1 [Example 145, 4-(4-ethoxy-5-methyl-1H-indazol-1-yl)-N-(trans-4-methoxycyclohexyl)piperidine-1-carboxamide]		804
COc1nn(C2CCN(C(=O)N[C@H]3CC[C@H](OC)CC3)CC2)c2ccc(C)cc12 [Example 147]	181	
CCc1ccc2c(c1)c(OC)nn2C1CCN(C(=O)NC2CCC(F)(F)CC2)CC1 [Example 149]	1053	
CCc1ccc2c(c1)c(OC)nn2C1CCN(C(=O)NC2CCOCC2)CC1 [Example 150]	643	
CCc1ccc2c(c1)c(OC)nn2C1CCN(C(=O)NC2CCCCC2)CC1 [Example 151]	746	
CCc1ccc2c(c1)c(OC(C)C)nn2C1CCN(C(=O)NC2CCCCC2)CC1 [Example 153]	386	
Cc1ccc2c(cnn2C2CCN(C(=O)N[C@H]3CC[C@H](OC(F)F)CC3)CC2)c1 [Example 154]	811	
CO[C@H]1CC[C@H](NC(=O)N2CCC(n3ncc4cc(-c5ccc(F)cc5)ccc43)CC2)CC1 [Example 155]	210	
COc1ccc(-c2ccc3c(cnn3C3CCN(C(=O)NC4CCC(F)(F)CC4)CC3)c2)cc1 [Example 156]	358	
CCc1ccc2c(c1)c(COC)nn2C1CCN(C(=O)NC2CCC(F)(F)CC2)CC1 [Example 157]	366	
CCc1cccc2c1cnn2C1CCN(C(=O)N[C@H]2CC[C@@H](OC)CC2)CC1 [Example 158]	292	
CCc1cccc2c1cnn2C1CCN(C(=O)N[C@H]2CC[C@H](OC(F)F)CC2)CC1 [Example 159]	187	
CO[C@H]1CC[C@@H](NC(=O)N2CCC(n3ncc4c(C5CC5)cccc43)CC2)CC1 [Example 160]	207	
O=C(NC1CCC(F)(F)CC1)N1CCC(n2ncc3c(C4CC4)cccc32)CC1 [Example 161]	567	
[2H]C([2H])([2H])O[C@H]1CC[C@H](NC(=O)N2CCC(n3ncc4cc(C(F)(F)F)ccc43)CC2)CC1 [Example 178, N-{trans-4-[(^2H3)methoxy]cyclohexyl}-4-[5-(trifluoromethyl)-1H-indazol-1-yl]piperidine-1-carboxamide]	524	

The next lines start with the values.

α7PAM (%) @ 10 μmol/L [%]	activity at 10 µM [%]	Compound
1874		Cc1ccc2c(cnn2C2CCN(C(=O)N[C@H]3CC[C@H](OCC4CC4)CC3)CC2)c1 [Example 162]
979		O=C(NC1CCC(F)(F)CC1)N1CCC(n2ncc3cc(C(F)(F)F)ccc32)CC1 [Example 164]
442		COCc1cccc2c1cnn2C1CCN(C(=O)NC2CCCCC2)CC1 [Example 165]
711		COCc1cccc2c1cnn2C1CCN(C(=O)NC2CCC(F)(F)CC2)CC1 [Example 166]
434		CCOCc1cccc2c1cnn2C1CCN(C(=O)NC2CCCCC2)CC1 [Example 167]
359		O=C(NC1CCC(F)(F)CC1)N1CCC(n2ncc3c(C(F)(F)F)cccc32)CC1 [Example 169]
1382		O=C(NC1CCCC1)N1CCC(n2ncc3cc(C4CC4)ccc32)CC1 [Example 171]
541		CC(C)(C)NC(=O)N1CCC(n2ncc3cc(C4CC4)ccc32)CC1 [Example 172]
187		O=C(NC1CC1)N1CCC(n2ncc3cc(C4CC4)ccc32)CC1 [Example 176]
712		O=C(NC1CCCOC1)N1CCC(n2ncc3cc(C4CC4)ccc32)CC1 (stereo not drawn) [Example 177]
274		CC(C)Oc1cccc2c1cnn2C1CCN(C(=O)NC2CCCCC2)CC1 [Example 180]
538		COc1cccc2c1cnn2C1CCN(C(=O)NC2CCCCC2)CC1 [Example 181]
742		COc1cccc2c1cnn2C1CCN(C(=O)NC2CCC(F)(F)CC2)CC1 [Example 182]
342		CC(C)Oc1cccc2c1cnn2C1CCN(C(=O)NC2CCC(F)(F)CC2)CC1 [Example 183]
200		CCOc1cccc2c1cnn2C1CCN(C(=O)N[C@H]2CC[C@@H](OC)CC2)CC1 [Example 184]
494		O=C(NC1CCC1)N1CCC(n2ncc3cc(C4CC4)ccc32)CC1 [Example 185]
220		O=C(Nc1ccc(C(F)(F)F)nc1)N1CCC(n2ncc3cc(C4CC4)ccc32)CC1 [Example 187]
257		CO[C@H]1CC[C@@H](NC(=O)N2CCC(n3ncc4cc(C5CC5)ccc43)CC2)CC1 [Example 189]
256		O=C(NC1CCC(F)(F)CC1)N1CCC(n2ncc3c(F)cccc32)CC1 [Example 190]
493		CCOc1cccc2c1cnn2C1CCN(C(=O)NC2CCCCC2)CC1 [Example 191]
699		CCOc1cccc2c1cnn2C1CCN(C(=O)NC2CCC(F)(F)CC2)CC1 [Example 192]
889		COc1ccc(CNC(=O)N2CCC(n3ncc4cc(C5CC5)ccc43)CC2)cc1 [Example 193]
278		O=C(NCc1ccccc1)N1CCC(n2ncc3cc(C4CC4)ccc32)CC1 [Example 194]
232		O=C(NCc1ccc(C(F)(F)F)cc1)N1CCC(n2ncc3cc(C4CC4)ccc32)CC1 [Example 195]
229		O=C(NC1CCC(F)(F)CC1)N1CCC(n2ncc3cc(-c4cccnc4)ccc32)CC1 [Example 196]
268		N#Cc1ccc2c(cnn2C2CCN(C(=O)NC3CCC(F)(F)CC3)CC2)c1 [Example 198]
1497		O=C(NC1CCCCC1)N1CCC(n2ncc3cc(C4CC4)ccc32)CC1 [Example 199]
370		O=C(NC1CCC(F)(F)CC1)N1CCC(n2ncc3c(OC(F)F)cccc32)CC1 [Example 201]
195		COC1CCC(NC(=O)N2CCC(n3ncc4c(OC(F)F)cccc43)CC2)CC1 (stereo not drawn) [Example 202]
271		CC(=O)N1CCC(NC(=O)N2CCC(n3ncc4cc(C5CC5)ccc43)CC2)CC1 [Example 203]
